The experiment has as its target T1, Short transient receptor potential channel 6 (Homo sapiens, UniProt Q9Y210).
T1 sequence (Q9Y210 whole entry): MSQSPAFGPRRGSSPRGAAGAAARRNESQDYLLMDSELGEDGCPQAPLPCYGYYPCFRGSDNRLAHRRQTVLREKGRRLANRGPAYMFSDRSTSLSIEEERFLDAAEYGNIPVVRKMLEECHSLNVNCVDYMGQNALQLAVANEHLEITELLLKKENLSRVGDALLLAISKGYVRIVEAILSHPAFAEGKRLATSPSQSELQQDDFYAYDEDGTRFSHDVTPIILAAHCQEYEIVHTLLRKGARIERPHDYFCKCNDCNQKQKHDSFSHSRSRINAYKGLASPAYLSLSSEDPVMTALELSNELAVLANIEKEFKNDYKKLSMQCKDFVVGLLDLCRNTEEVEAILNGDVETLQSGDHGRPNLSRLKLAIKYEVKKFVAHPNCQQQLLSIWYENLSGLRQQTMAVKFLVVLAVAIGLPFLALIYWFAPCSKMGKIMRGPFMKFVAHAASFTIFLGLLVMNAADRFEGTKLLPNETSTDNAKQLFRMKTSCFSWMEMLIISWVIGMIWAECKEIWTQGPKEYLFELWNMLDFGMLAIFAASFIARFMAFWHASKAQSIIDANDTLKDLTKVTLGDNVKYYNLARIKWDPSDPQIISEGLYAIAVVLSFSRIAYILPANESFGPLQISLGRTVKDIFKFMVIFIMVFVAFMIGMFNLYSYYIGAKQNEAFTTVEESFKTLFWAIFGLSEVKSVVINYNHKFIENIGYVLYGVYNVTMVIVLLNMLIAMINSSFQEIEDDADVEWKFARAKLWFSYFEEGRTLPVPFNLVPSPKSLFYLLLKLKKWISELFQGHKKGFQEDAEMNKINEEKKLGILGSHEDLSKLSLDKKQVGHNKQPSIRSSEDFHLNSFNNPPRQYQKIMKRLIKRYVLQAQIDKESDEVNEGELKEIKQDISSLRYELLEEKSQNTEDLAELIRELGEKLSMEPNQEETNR
Briefly: High Throughput Screening Assay: This screening assay measures TRPC6 (transient receptor potential cation channel, subfamily C, member 6) ion channel activation via addition either of the commercially available DAG ligand analogue OAG (1-oleoyl-2-acetyl-sn-glycerol) or of the TRPC6 agonist 1-[1-(4,5,6,7,8-pentahydrocyclohepta[2,1-d]thiophen-2-ylcarbonyl)-4-piperidyl]-3-hydrobenzimidazol-2-one (GSK1702934A). The assay utilizes a FLIPR fluorescent calcium sensor 4-(6-Acetoxymethoxy-2,7-difluoro-3-oxo-9-xanthenyl)-4′-methyl-2,2′-(ethylenedioxy)dianiline-N,N,N′,N′-tetraacetic acid tetrakis(acetoxymethyl) ester (Fluo4/AM) […]. Changes (increases) in intracellular membrane calcium concentration potential as measured by the fluorescent signal increase during membrane depolarization provide a measurement of channel activity.The commercially available HEK293/TREx line (Invitrogen) was stably transfected with a TRPC6 construct and screened by conventional calcium imaging to find clones with TRPC6 expression following stimulation with 1 μg/ml tetracycline. These cells were maintained in the growth medium recommended by the manufacturer supplemented with 100 μg/ml hygromycin to promote retention of the TRPC6 construct. […]. It is filed as […].

This passage reports IC50 results from ChEMBL document CHEMBL5728023, “Inhibitors of TRPC6” (2020).

Each structure is given as a SMILES string. pIC50: −log10 of the molar value.

For orientation: pIC50 means −log10 of the IC50, conventionally taken in molar units. In the case of `CCOc1cc(C(=O)N2C3CCC2CC(c2ccc(N)nn2)C3)ncc1Oc1ccc(F)cc1` (stereo unspecified), the pIC50 was 5.68.
